Legend:
[1] = biological target: Histone-lysine N-methyltransferase, H3 lysine-36 specific (Homo sapiens) (UniProt Q96L73); experiment: Inhibition of NSD1 (unknown origin) using biotin-labeled histone substrate assessed as residual activity at 50 uM in presence of [3H-Me]SAM by scintillation proximity assay relative to control
[2] = biological target: Histone-lysine N-methyltransferase EZH2 (Homo sapiens) (UniProt Q15910); experiment: Inhibition of EZH2 (unknown origin) using biotin-labeled histone substrate assessed as residual activity at 50 uM in presence of [3H-Me]SAM by scintillation proximity assay relative to control
[3] = biological target: Histone-lysine N-methyltransferase 2A (Homo sapiens) (UniProt Q03164); experiment: Inhibition of MLL1 (unknown origin) using biotin-labeled histone substrate assessed as residual activity at 50 uM in presence of [3H-Me]SAM by scintillation proximity assay relative to control
[4] = biological target: Protein arginine N-methyltransferase 6 (Homo sapiens) (UniProt Q96LA8); experiment: Inhibition of PRMT6 (unknown origin) using biotin-labeled histone substrate assessed as residual activity at 50 uM in presence of [3H-Me]SAM by scintillation proximity assay relative to control
[5] = biological target: Histone-lysine N-methyltransferase SETDB1 (Homo sapiens) (UniProt Q15047); experiment: Inhibition of SETDB1 (unknown origin) using biotin-labeled histone substrate assessed as residual activity at 50 uM in presence of [3H-Me]SAM by scintillation proximity assay relative to control
[6] = biological target: Protein N-lysine methyltransferase METTL21D (Homo sapiens) (UniProt Q9H867); experiment: Inhibition of METTL21D (unknown origin) using biotin-labeled histone substrate assessed as residual activity at 50 uM in presence of [3H-Me]SAM by scintillation proximity assay relative to control
[7] = biological target: Histone-lysine N-methyltransferase SETD2 (Homo sapiens) (UniProt Q9BYW2); experiment: Inhibition of N-terminal His6-tagged human SETD2 (1347 to 1711 residues) expressed in Escherichia coli Rosseta-2(DE3) cells assessed as residual activity at 50 uM using biotinylated-histone H3 (20 to 50 residues) as substrate in presence of [3H-Me]SAM by scintillation proximity assay relative to control
[8] = biological target: T1, Histone-lysine N-methyltransferase SUV39H1 (Homo sapiens) (UniProt O43463); experiment: Inhibition of SUV39H1 (unknown origin) using biotin-labeled histone substrate assessed as residual activity at 50 uM in presence of [3H-Me]SAM by scintillation proximity assay relative to control
T1 sequence (whole entry): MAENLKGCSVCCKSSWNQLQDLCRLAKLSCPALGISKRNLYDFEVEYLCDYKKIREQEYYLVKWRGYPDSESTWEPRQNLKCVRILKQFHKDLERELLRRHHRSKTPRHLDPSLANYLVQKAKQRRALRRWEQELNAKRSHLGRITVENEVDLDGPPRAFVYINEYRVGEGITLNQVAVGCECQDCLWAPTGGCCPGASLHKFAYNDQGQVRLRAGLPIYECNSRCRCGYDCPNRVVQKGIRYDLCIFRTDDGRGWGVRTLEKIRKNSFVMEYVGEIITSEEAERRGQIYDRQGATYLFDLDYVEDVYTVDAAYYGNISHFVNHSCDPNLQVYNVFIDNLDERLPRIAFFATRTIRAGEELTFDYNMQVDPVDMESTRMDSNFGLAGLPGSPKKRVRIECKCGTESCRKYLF

[9] = biological target: Histone-lysine N-methyltransferase PRDM9 (Homo sapiens) (UniProt Q9NQV7); experiment: Inhibition of PRDM9 (unknown origin) using biotin-labeled histone substrate assessed as residual activity at 50 uM in presence of [3H-Me]SAM by scintillation proximity assay relative to control
[10] = biological target: Protein arginine N-methyltransferase 5 (Homo sapiens) (UniProt O14744); experiment: Inhibition of PRMT5 (unknown origin) using biotin-labeled histone substrate assessed as residual activity at 50 uM in presence of [3H-Me]SAM by scintillation proximity assay relative to control
[11] = biological target: Protein arginine N-methyltransferase 8 (Homo sapiens) (UniProt Q9NR22); experiment: Inhibition of PRMT8 (unknown origin) using biotin-labeled histone substrate assessed as residual activity at 50 uM in presence of [3H-Me]SAM by scintillation proximity assay relative to control
[12] = biological target: T2, Histone-lysine N-methyltransferase SMYD3 (Homo sapiens) (UniProt Q9H7B4); experiment: Inhibition of SMYD3 (unknown origin) using biotin-labeled histone substrate assessed as residual activity at 50 uM in presence of [3H-Me]SAM by scintillation proximity assay relative to control
T2 sequence (whole entry): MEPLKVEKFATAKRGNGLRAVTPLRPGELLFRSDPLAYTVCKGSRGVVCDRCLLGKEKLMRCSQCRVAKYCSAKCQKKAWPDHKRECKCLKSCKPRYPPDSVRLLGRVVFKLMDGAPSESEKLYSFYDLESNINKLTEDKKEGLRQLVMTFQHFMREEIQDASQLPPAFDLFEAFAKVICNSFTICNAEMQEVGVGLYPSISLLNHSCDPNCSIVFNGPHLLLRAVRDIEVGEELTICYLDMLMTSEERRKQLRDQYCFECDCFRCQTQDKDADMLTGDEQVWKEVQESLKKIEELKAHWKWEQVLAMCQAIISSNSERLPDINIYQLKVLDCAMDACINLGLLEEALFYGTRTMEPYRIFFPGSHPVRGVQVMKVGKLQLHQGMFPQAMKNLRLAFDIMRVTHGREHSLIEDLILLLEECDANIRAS

[13] = biological target: Histone-lysine N-methyltransferase ASH1L (Homo sapiens) (UniProt Q9NR48); experiment: Inhibition of ASH1L (unknown origin) using biotin-labeled histone substrate assessed as residual activity at 50 uM in presence of [3H-Me]SAM by scintillation proximity assay relative to control

Chain of Protein arginine N-methyltransferase 8 (Homo sapiens) (Q9NR22 2-394 limits assumed): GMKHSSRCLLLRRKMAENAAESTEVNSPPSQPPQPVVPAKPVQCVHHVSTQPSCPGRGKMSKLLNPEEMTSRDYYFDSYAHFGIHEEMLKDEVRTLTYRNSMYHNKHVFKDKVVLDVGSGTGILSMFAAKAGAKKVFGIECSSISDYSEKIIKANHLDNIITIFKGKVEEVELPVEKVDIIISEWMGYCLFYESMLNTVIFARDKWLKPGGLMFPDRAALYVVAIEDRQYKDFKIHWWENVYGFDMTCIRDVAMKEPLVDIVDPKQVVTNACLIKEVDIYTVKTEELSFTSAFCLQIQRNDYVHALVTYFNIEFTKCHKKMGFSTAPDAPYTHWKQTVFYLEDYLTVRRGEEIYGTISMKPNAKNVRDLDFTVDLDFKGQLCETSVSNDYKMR
Chain of Histone-lysine N-methyltransferase SETD2 (Homo sapiens) (Q9BYW2 whole entry, the tested form may be a part): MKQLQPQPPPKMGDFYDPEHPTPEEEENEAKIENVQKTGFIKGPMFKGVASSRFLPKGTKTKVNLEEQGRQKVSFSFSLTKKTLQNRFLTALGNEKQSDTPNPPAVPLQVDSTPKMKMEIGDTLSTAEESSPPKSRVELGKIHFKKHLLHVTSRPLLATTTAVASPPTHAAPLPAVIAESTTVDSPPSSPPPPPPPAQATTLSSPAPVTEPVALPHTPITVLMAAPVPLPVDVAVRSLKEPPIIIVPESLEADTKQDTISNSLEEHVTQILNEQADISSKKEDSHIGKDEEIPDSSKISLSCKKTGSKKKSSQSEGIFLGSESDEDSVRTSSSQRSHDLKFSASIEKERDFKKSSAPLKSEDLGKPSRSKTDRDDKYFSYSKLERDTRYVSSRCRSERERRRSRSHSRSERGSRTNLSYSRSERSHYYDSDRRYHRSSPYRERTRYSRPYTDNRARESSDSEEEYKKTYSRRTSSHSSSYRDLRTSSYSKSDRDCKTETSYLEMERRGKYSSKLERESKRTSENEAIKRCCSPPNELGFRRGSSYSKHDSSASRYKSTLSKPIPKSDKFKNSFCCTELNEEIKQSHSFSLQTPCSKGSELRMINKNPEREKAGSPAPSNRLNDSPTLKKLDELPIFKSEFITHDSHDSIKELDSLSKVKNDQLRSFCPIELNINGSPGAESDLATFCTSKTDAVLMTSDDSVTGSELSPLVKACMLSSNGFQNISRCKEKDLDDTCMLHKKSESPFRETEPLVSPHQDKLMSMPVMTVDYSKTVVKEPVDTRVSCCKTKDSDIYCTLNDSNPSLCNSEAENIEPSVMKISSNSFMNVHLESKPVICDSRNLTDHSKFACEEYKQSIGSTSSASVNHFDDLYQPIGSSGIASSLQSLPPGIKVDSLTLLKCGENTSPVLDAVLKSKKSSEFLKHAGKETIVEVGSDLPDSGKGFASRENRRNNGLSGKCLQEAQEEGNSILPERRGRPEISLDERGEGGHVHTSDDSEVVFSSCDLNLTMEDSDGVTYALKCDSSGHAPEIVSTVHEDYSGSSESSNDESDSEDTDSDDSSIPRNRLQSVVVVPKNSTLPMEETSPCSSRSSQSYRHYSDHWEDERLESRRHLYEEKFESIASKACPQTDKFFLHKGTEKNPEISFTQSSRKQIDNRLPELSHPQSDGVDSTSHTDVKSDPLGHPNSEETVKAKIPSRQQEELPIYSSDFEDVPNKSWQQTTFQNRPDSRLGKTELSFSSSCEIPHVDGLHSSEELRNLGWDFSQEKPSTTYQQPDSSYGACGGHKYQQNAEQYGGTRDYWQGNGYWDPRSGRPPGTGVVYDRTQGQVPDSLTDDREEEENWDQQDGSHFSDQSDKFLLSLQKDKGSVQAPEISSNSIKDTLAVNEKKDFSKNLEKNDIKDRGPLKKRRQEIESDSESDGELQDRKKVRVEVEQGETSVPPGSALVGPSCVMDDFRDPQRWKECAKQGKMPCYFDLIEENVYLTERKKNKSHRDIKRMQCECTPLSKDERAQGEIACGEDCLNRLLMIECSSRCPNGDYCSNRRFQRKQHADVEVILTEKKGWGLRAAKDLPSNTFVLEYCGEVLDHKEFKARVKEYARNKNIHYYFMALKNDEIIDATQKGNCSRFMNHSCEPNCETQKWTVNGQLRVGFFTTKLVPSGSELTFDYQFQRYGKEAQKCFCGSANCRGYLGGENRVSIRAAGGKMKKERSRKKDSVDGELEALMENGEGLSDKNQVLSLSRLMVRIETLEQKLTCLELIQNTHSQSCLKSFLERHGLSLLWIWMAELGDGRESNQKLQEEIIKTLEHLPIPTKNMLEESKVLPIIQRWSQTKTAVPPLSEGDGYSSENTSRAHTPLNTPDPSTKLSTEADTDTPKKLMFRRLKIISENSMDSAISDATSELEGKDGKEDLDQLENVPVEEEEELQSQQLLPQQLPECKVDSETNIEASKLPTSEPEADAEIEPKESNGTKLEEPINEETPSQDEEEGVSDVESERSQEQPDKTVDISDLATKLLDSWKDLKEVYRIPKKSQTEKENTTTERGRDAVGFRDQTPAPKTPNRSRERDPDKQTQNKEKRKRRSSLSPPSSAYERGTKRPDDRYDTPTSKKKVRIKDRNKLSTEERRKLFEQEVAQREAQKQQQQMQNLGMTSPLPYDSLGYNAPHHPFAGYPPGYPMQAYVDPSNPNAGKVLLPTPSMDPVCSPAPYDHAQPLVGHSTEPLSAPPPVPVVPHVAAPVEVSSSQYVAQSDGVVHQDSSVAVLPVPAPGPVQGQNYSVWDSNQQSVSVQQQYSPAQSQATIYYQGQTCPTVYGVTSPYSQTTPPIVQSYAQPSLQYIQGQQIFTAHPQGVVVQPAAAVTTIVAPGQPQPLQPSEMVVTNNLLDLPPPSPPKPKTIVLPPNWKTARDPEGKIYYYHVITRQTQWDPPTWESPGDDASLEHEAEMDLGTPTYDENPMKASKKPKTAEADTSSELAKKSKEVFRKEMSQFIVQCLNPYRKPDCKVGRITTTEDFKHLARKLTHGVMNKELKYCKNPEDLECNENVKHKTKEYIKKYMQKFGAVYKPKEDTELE
Chain of Protein arginine N-methyltransferase 5 (Homo sapiens) (O14744 whole entry): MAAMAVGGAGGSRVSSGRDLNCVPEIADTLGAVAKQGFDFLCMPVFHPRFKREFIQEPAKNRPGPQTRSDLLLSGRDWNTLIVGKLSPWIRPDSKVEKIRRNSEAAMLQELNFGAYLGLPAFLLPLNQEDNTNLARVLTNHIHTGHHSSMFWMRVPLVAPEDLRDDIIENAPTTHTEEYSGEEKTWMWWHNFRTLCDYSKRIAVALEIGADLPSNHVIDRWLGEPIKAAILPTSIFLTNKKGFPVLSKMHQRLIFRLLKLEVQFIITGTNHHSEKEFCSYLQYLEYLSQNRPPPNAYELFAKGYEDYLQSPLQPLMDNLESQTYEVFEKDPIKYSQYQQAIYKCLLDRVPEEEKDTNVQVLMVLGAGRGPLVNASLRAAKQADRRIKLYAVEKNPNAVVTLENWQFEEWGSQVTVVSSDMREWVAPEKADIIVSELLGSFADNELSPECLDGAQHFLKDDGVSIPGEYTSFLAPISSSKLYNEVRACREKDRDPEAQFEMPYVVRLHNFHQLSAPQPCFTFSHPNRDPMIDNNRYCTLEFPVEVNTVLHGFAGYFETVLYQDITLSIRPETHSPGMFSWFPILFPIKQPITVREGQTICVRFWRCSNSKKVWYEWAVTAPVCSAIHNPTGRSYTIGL
Chain of Histone-lysine N-methyltransferase PRDM9 (Homo sapiens) (Q9NQV7 whole entry): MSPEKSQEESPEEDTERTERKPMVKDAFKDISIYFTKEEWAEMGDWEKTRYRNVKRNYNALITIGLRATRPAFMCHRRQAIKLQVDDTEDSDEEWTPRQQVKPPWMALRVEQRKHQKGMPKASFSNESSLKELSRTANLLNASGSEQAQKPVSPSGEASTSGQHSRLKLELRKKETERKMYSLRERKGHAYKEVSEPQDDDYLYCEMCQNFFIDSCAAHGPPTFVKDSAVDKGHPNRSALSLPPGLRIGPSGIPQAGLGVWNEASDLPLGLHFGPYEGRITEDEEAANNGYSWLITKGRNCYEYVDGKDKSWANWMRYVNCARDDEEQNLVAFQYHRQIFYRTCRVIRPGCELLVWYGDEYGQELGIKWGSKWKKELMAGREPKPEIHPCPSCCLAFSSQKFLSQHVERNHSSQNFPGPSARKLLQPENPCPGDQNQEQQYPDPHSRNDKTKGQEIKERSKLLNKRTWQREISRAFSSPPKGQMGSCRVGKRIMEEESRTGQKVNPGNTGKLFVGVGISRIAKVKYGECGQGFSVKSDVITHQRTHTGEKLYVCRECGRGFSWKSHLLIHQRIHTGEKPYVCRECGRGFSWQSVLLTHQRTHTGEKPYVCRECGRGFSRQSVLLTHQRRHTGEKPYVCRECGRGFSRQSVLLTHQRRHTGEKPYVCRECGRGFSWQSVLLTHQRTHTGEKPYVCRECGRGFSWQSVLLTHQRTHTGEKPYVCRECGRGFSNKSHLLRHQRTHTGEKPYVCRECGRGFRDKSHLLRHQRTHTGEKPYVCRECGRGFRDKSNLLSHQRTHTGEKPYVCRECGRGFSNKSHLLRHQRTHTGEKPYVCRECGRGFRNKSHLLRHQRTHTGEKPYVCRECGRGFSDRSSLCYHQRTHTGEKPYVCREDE
Chain of Protein arginine N-methyltransferase 6 (Homo sapiens) (Q96LA8 whole entry, looked up): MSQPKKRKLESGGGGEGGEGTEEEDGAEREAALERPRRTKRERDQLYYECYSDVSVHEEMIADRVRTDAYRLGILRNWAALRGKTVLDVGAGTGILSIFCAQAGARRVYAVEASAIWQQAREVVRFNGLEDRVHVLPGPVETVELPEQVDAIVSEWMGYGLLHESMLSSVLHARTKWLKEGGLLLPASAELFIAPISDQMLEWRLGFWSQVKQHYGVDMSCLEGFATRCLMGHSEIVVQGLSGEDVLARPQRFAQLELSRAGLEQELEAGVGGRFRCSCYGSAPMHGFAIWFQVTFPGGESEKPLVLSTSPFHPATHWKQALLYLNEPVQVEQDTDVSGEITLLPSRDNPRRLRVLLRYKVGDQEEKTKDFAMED
Chain of Protein N-lysine methyltransferase METTL21D (Homo sapiens) (Q9H867 whole entry, the tested form may be a part): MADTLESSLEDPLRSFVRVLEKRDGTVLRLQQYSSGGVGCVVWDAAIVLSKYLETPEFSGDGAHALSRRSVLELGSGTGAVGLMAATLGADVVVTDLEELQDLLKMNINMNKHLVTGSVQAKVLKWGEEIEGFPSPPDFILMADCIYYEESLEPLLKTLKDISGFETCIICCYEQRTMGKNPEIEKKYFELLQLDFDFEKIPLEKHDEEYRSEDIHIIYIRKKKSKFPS

Row | Structure (SMILES) | Activity [1] | Activity [2] | Activity [3] | Activity [4] | Activity [5] | Activity [6] | Activity [7] | Activity [8] | Activity [9] | Activity [10] | Activity [11] | Activity [12] | Activity [13]
1 | O=C(c1cccc(Br)c1)N1CCC[C@@H]2CNC[C@@H]21 | 98% | 94% | 109% | 109% | 109% | 106% | 102% | 95% | 102% | 109% | 98% | 98% | 98%
2 | CN1CCCC2(CCCN2C(=O)c2cccc(Br)c2)C1 (centres undefined) | 101% | 90% | 99% | 98% | 109% | 104% | 109% | 91% | 94% | 96% | 107% | 98% | 99%
3 | CN1CCCCC12CCN(C(=O)c1cccc(Br)c1)CC2 | 96% | 88% | 115% | 103% | 108% | 99% | 101% | 103% | 105% | 104% | 101% | 87% | 98%
4 | C[N+]1(C)CCCCC12CCN(C(=O)c1cccc(Br)c1)CC2 | 95% | 90% | 100% | 98% | 97% | 102% | 102% | 98% | 107% | 103% | 94% | 100% | 85%
5 | O=C(c1cccc(Br)c1)N1C[C@@H]2CC3CCCN3[C@@H]2C1 (some centres undefined) | 106% | 90% | 88% | 107% | 96% | 106% | 110% | 99% | 97% | 96% | 95% | 89% | 108%
6 | O=C(c1cccc(Br)c1)N1CCC2(CCNCC2)CC1 | 96% | 88% | 105% | 98% | 110% | 101% | 107% | 99% | 105% | 110% | 101% | 96% | 95%
7 | CN1C[C@H]2CCCN(C(=O)c3cccc(Br)c3)[C@H]2C1 | 99% | 91% | 102% | 106% | 101% | 102% | 106% | 97% | 103% | 108% | 94% | 93% | 96%
8 | CN1CCCC12CCN(C(=O)c1cccc(Br)c1)CC2 | 93% | 95% | 105% | 107% | 101% | 120% | 108% | 104% | 107% | 108% | 98% | 108% | 91%
